Data: ChEMBL document CHEMBL3045373, “New thiazolidinyl analogs containing pyridine ring: synthesis, biological evaluation and QSAR studies” (2013)

Key:
Rattus norvegicus = experiment: Anti-inflammatory activity against Rattus norvegicus Wistar (rat) assessed as inhibition of carrageenan-induced paw edema at 10 mg/kg, po administered 30 min prior to carrageenan challenge measured at 120 min by plethysmometeric analysis relative to untreated control; assay type: functional
Mus musculus = experiment: Analgesic activity in Mus musculus Swiss albino (mouse) assessed as inhibition of acetic acid-induced writhing at 50 mg/kg, po administered 30 min prior to acetic acid challenge measured at 5 to 15 min relative to untreated control; assay type: functional

## O=C1N/C(=N/c2ccccc2)S/C1=C\c1ccccn1
Rattus norvegicus
  inhibition in vivo at 10 mg/kg: 26.2%
Mus musculus
  inhibition in vivo at 50 mg/kg: 29.2%

## O=C1N/C(=N/c2ccc(Cl)cc2)S/C1=C\c1ccccn1
Rattus norvegicus
  inhibition in vivo at 10 mg/kg: 34.8%
Mus musculus
  inhibition in vivo at 50 mg/kg: 41.7%

## Cc1cccc(/N=C2/NC(=O)/C(=C/c3ccccn3)S2)c1
Rattus norvegicus
  inhibition in vivo at 10 mg/kg: 39.7%
Mus musculus
  inhibition in vivo at 50 mg/kg: 52.3%

## Cc1ccc(/N=C2/NC(=O)/C(=C/c3ccccn3)S2)cc1
Rattus norvegicus
  inhibition in vivo at 10 mg/kg: 43.8%
Mus musculus
  inhibition in vivo at 50 mg/kg: 43.2%

## O=C1N/C(=N/c2ccc(F)cc2)S/C1=C\c1ccccn1
Rattus norvegicus
  inhibition in vivo at 10 mg/kg: 34.7%
Mus musculus
  inhibition in vivo at 50 mg/kg: 43.2%

## O=C1N/C(=N\Nc2ccccc2)S/C1=C\c1ccccn1
Rattus norvegicus
  inhibition in vivo at 10 mg/kg: 39.7%
Mus musculus
  inhibition in vivo at 50 mg/kg: 46.2%

## O=C1N/C(=N\c2ccccc2[N+](=O)[O-])S/C1=C/c1ccccn1
Rattus norvegicus
  inhibition in vivo at 10 mg/kg: 34.8%
Mus musculus
  inhibition in vivo at 50 mg/kg: 36.7%

## O=C1N/C(=N\Nc2ccc([N+](=O)[O-])cc2[N+](=O)[O-])S/C1=C\c1ccccn1
Rattus norvegicus
  inhibition in vivo at 10 mg/kg: 56.5%
Mus musculus
  inhibition in vivo at 50 mg/kg: 68.7%

## COc1ccc(/N=C2\NC(=O)/C(=C/c3ccccn3)S2)cc1
Rattus norvegicus
  inhibition in vivo at 10 mg/kg: 39.1%
Mus musculus
  inhibition in vivo at 50 mg/kg: 42.4%

## O=C1N/C(=N/c2cccc([N+](=O)[O-])c2)S/C1=C\c1ccccn1
Rattus norvegicus
  inhibition in vivo at 10 mg/kg: 43.5%
Mus musculus
  inhibition in vivo at 50 mg/kg: 62.3%

## O=C1N/C(=N/c2ccc([N+](=O)[O-])cc2Cl)S/C1=C\c1ccccn1
Rattus norvegicus
  inhibition in vivo at 10 mg/kg: 39.7%
Mus musculus
  inhibition in vivo at 50 mg/kg: 37.4%

## Cc1cccc(C)c1/N=C1/NC(=O)/C(=C/c2ccccn2)S1
Rattus norvegicus
  inhibition in vivo at 10 mg/kg: 39.7%
Mus musculus
  inhibition in vivo at 50 mg/kg: 51.5%

## O=C1N/C(=N/c2ccccc2Cl)S/C1=C\c1ccccn1
Rattus norvegicus
  inhibition in vivo at 10 mg/kg: 26.2%
Mus musculus
  inhibition in vivo at 50 mg/kg: 36.2%

## Cc1ccccc1/N=C1/NC(=O)/C(=C/c2ccccn2)S1
Rattus norvegicus
  inhibition in vivo at 10 mg/kg: 30.4%
Mus musculus
  inhibition in vivo at 50 mg/kg: 43.6%

## O=C1N/C(=N/c2ccc(Br)cc2)S/C1=C\c1ccccn1
Rattus norvegicus
  inhibition in vivo at 10 mg/kg: 30.4%
Mus musculus
  inhibition in vivo at 50 mg/kg: 28.7%

## O=C(O)Cc1ccccc1Nc1c(Cl)cccc1Cl [DICLOFENAC SODIUM]
Rattus norvegicus
  inhibition in vivo at 10 mg/kg: 43.5%
Mus musculus
  inhibition in vivo at 50 mg/kg: 60.2%
